The results in this text go back to article PMC9610298, “Synthesis, Biological Evaluation and Machine Learning Prediction Model for Fluorinated Cinchona Alkaloid-Based Derivatives as Cholinesterase Inhibitors” (Pharmaceuticals, 2022).

SMILES strings stand for the structures.

The target of test [1] is purified human BChE (Homo sapiens, UniProt P06276). Put plainly: Reversible inhibition of BChE, Ellman method, enzyme-inhibitor dissociation constants. Conditions: for SI, selective index Ki(AChE)/Ki(BChE): times higher preference for BChE over AChE; for Ki: ± standard error, ATCh substrate, 25 °C, pH 7.4. The format is biochemical. The protocol: (§1) As a source of BChE, a purified human BChE, and as AChE, a recombinant human AChE was used, both enzymes kindly provided by Dr. F. Nachon (Département de Toxicologie, Armed Forces Biomedical Research Institute, France). The concentrated stocks of enzymes (BChE: 5.6 µM; AChE: 0.20 µM) were diluted in a phosphate sodium buffer 0.1 M (pH 7.4) containing 0.1% BSA before starting the experiments.
Chain of purified human BChE (P06276 29-602): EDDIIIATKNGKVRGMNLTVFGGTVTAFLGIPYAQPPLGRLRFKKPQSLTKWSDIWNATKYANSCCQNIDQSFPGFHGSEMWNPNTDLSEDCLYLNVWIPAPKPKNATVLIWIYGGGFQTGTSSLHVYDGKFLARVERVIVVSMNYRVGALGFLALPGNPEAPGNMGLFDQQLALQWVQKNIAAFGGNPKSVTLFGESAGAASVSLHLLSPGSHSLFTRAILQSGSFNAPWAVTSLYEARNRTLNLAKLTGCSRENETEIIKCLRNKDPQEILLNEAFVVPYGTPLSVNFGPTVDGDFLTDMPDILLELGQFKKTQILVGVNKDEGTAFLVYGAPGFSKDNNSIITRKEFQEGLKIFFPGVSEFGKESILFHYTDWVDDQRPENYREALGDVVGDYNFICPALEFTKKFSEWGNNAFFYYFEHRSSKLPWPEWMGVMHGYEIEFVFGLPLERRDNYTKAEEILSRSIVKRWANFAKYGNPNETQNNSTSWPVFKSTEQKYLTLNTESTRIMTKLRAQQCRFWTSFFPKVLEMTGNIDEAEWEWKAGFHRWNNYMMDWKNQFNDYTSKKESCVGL
(§2) Enzyme activities were measured spectrophotometrically by the Ellman method at […] using 0.30 mM DTNB as thiol reagent, ATCh as substrate and water in 0.1 M phosphate buffer, pH 7.4. For the inhibition measurements, the reaction mixture contained tested compounds instead of water. […] Measurements were done at 25 °C on a Tecan Infinite M200Pro plate reader (Austria). A detailed description of measurement protocol was described previously.
(§3) The reversible inhibition of BChE and AChE by tested compounds was measured by determining the decrease of enzyme activity towards ATCh in their presence. The activities of the enzymes were measured at different substrate concentrations ([S]; 0.050–0.50 mM) in the absence (v0) and presence (vi) of the given tested compounds concentration ([I]; 0.050–200 µM, depending on the compound) selected to inhibit the enzymes for 20–80%. At least three concentrations of inhibitors for each substrate concentration were used in at least three experiments. The apparent dissociation inhibition constant (Ki,app) was calculated applying the Hunter-Downs equation and linear regression analysis (1):(1) Ki,app=vi/v0−vi⋅I=KI+KI/KS⋅S where y-intercept determines the enzyme-inhibitor dissociation constants (K(I)), while x-intercept determines the enzyme-substrate dissociation constant, K(S). The determination of kinetic constants was carried out using the GraphPadPrism 6.0 program (GraphPad Software, San Diego, CA, USA).
(In Ellman's method for cholinesterases, released thiocholine reacts with DTNB.)

The target of test [2] is recombinant human AChE (Homo sapiens, UniProt P22303). Put plainly: Reversible inhibition of AChE, Ellman method, enzyme-inhibitor dissociation constants. It counts as biochemical. The settings on record: ± standard error; ATCh substrate, 25 °C, pH 7.4. The protocol: as §1, §2, §3
Chain of recombinant human AChE (P22303 32-614): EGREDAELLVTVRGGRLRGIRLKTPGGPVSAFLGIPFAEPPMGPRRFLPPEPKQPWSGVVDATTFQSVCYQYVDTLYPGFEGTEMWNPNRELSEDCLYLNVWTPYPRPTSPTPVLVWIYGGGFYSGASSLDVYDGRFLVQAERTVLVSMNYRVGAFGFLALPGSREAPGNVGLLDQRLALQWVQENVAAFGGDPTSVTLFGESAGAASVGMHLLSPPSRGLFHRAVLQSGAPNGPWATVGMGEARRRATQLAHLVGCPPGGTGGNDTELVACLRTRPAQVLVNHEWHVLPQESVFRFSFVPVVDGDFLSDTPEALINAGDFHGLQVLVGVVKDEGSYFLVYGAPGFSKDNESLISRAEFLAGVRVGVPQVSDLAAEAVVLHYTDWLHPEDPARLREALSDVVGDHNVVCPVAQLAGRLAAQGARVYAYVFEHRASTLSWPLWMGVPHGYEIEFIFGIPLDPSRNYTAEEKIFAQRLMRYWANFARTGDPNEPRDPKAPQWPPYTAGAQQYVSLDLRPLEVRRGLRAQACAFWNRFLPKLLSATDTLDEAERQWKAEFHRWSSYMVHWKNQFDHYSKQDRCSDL

A word on the Ki: it is a dissociation constant, usually derived from enzyme kinetics or from competition with a known ligand. As to `C=CC1C[N+]2(Cc3ccc(F)c(F)c3)CCC1C[C@@H]2[C@@H](O)c1ccnc2ccccc12` (some centres unmarked) [CN 3,4F], in test [1], the “SI, selective index Ki(AChE)/Ki(BChE)” value is 2.3 and the Ki was 6.1 ± 0.2 µM. In addition, the Ki in test [2] came to 14 ± 0.2 µM.

For the compound `CCC1C[N+]2(Cc3cccc(F)c3)CCC1C[C@H]2[C@H](O)c1ccnc2ccccc12` (some centres unmarked) [DHCD 3F], in test [1], the “SI, selective index Ki(AChE)/Ki(BChE)” value was determined as 84 and the Ki turned out to be 0.3 ± 0.02 µM. For the same compound, the Ki in test [2] stood at 27 ± 2 µM.

Turning to `C=CC1C[N+]2(Cc3ccc(C(F)(F)F)cc3)CCC1C[C@H]2[C@H](O)c1ccnc2ccccc12` (some centres unmarked) [CD 4CF3], in test [1], the “SI, selective index Ki(AChE)/Ki(BChE)” value was 11. For the same compound, the Ki was 2 ± 0.1 µM in test [1] and 21 ± 1 µM in test [2].

On to `C=CC1C[N+]2(Cc3cccc(F)c3)CCC1C[C@@H]2[C@@H](O)c1ccnc2ccccc12` (some centres unmarked) [CN 3F], for which, in test [1], the “SI, selective index Ki(AChE)/Ki(BChE)” value was found to be 2.1 and affinity was put at a Ki of 6.1 ± 0.3 µM. Besides, the Ki in test [2] was 13 ± 0.4 µM.

As for `CCC1C[N+]2(Cc3cccc(OC(F)(F)F)c3)CCC1C[C@H]2[C@H](O)c1ccnc2ccccc12` (some centres unmarked) [DHCD 3OCF3, N-(3-trifluoromethoxybenzyl)-10,11-dihydrocinchonidinium bromide], the “SI, selective index Ki(AChE)/Ki(BChE)” value in test [1] is recorded as 5. Besides, the Ki was 6.8 ± 0.3 µM in test [1] and 36 ± 1 µM in test [2].

Take `CCC1C[N+]2(Cc3ccc(OC(F)(F)F)cc3)CCC1C[C@H]2[C@H](O)c1ccnc2ccccc12` (some centres unmarked) [DHCD 4OCF3, N-(4-trifluoromethoxybenzyl)-10,11-dihydrocinchonidinium bromide]: in test [1], the “SI, selective index Ki(AChE)/Ki(BChE)” value is 3 and affinity was put at a Ki of 5.9 ± 0.2 µM. In addition, the Ki in test [2] was found to be 17 ± 1 µM.

`C=CC1C[N+]2(Cc3cccc(OC(F)(F)F)c3)CCC1C[C@H]2[C@H](O)c1ccnc2ccccc12` (some centres unmarked) [CD 3OCF3]: in test [1], the “SI, selective index Ki(AChE)/Ki(BChE)” value is 1.1 and the inhibition constant Ki was 7.4 ± 0.4 µM. The inhibition constant (Ki) in test [2] is 8.2 ± 1.1 µM.

`C=CC1C[N+]2(Cc3cc(F)cc(F)c3)CCC1C[C@@H]2[C@@H](O)c1ccnc2ccccc12` (some centres unmarked) [CN 3,5F]: in test [1], the “SI, selective index Ki(AChE)/Ki(BChE)” value was 5.4 and the affinity corresponds to a Ki of 6.3 ± 0.2 µM. Moreover, the Ki in test [2] amounted to 34 ± 3 µM.

In the case of `CCC1C[N+]2(Cc3cccc(F)c3)CCC1C[C@@H]2[C@@H](O)c1ccnc2ccccc12` (some centres unmarked) [DHCN 3F, N-(3-fluorobenzyl)-10,11-dihydrocinchoninium bromide], in test [1], the “SI, selective index Ki(AChE)/Ki(BChE)” value stood at 20 and the inhibition constant Ki worked out at 1.2 ± 0.1 µM. Also, in test [2], the Ki amounted to 20 ± 1 µM.

As for `C=CC1C[N+]2(Cc3c(F)cccc3F)CCC1C[C@@H]2[C@@H](O)c1ccnc2ccccc12` (some centres unmarked) [CN 2,6F, N-(2,6-difluorobenzyl)cinchoninium bromide], the “SI, selective index Ki(AChE)/Ki(BChE)” value in test [1] is 5.8. Further, the Ki in test [1] is 5.2 ± 0.2 µM; in test [2], 30 ± 2 µM.

With `C=CC1C[N+]2(Cc3ccc(F)c(F)c3)CCC1C[C@H]2[C@H](O)c1ccnc2ccccc12` (some centres unmarked) [CD 3,4F], in test [1], the “SI, selective index Ki(AChE)/Ki(BChE)” value is 10 and the Ki worked out at 1.3 ± 0.1 µM. Further, the Ki in test [2] is 13 ± 1 µM.

`C=CC1C[N+]2(Cc3cccc(C(F)(F)F)c3)CCC1C[C@@H]2[C@@H](O)c1ccnc2ccccc12` (some centres unmarked) [CN 3CF3]: in test [1], the “SI, selective index Ki(AChE)/Ki(BChE)” value came out at 13 and the inhibitory constant (Ki) came to 4.4 ± 0.2 µM. Further, the inhibitory constant (Ki) in test [2] stood at 59 ± 2 µM.

For `C=CC1C[N+]2(Cc3c(F)cccc3Cl)CCC1C[C@H]2[C@H](O)c1ccnc2ccccc12` (some centres unmarked) [CD 2Cl-6F, N-(2-chloro-6-fluorobenzyl)cinchonidinium bromide], in test [1], the “SI, selective index Ki(AChE)/Ki(BChE)” value is recorded as 1.9 and affinity was put at a Ki of 5 ± 0.3 µM. Further, in test [2], the Ki was determined as 9.9 ± 0.8 µM.

Consider `C=CC1C[N+]2(Cc3ccc(C(F)(F)F)cc3)CCC1C[C@@H]2[C@@H](O)c1ccnc2ccccc12` (some centres unmarked) [CN 4CF3], for which the “SI, selective index Ki(AChE)/Ki(BChE)” value in test [1] is 5.2. The inhibition constant Ki in test [1] is 6 ± 0.3 µM; in test [2], 31 ± 1 µM.

In the case of `CC[C@H]1CN2CC[C@H]1C[C@@H]2[C@@H](O)c1ccnc2ccccc12` [DHCN, 10,11-dihydrocinchonine], the “times higher affinity of BChE for DHCN over DHCD” value in test [1] (unsubstituted 10,11-dihydro compounds) is 16. Further, the Ki in test [1] was 1.2 ± 0.1 µM.
